From ChEMBL document CHEMBL5046309, “Discovery of SHR5133, a Highly Potent and Novel HBV Capsid Assembly Modulator” (ACS Med Chem Lett, 2022)
Activity calls are given as the source filed them. The rule behind the calls is not given here.

Legend:
HepG2 2.2.15 = assay: Cytotoxicity against human HepG2.2.15 cells assessed as reduction in cell viability incubated for 72 hrs by cell titer-glo assay; type: functional
[1] = Cmax in Sprague-Dawley rat at 2 mg/kg, po measured up to 24 hrs by LC-MS/MS analysis; type: ADME, organism-based; parameters: route oral, dose 2 mg/kg, time <=24; details: in vivo
[2] = AUC(0 to 24 hrs) in Sprague-Dawley rat at 2 mg/kg, po measured up to 24 hrs by LC-MS/MS analysis; type: ADME, organism-based; parameters: route oral, dose 2 mg/kg, time <=24; details: in vivo
[3] = Clearance in Sprague-Dawley rat at 1 mg/kg, iv measured up to 24 hrs by LC-MS/MS analysis; type: ADME, organism-based; details: in vivo
[4] = Half life in Sprague-Dawley rat at 2 mg/kg, po measured up to 24 hrs by LC-MS/MS analysis; type: ADME, organism-based; details: in vivo

| Structure (SMILES) | CC50 (HepG2 2.2.15) | other results |
| --- | --- | --- |
| Cc1cc(NC(=O)N2Cc3c(C(=O)N[C@H](C)C(F)(F)F)ncn3C[C@@H]2C)ccc1F | > 100 µM | Cmax [1]: 492 ng/mL; AUC [2]: 2.12 µg/mL/h; clearance [3]: 26.6 mL/min/kg; half-life [4]: 3.87 h |
| C[C@H]1Cn2cnc(C(=O)N[C@H](C)C(F)(F)F)c2CN1C(=O)Nc1cc(F)nc(F)c1 | > 100 µM | – |
| C[C@H](NC(=O)c1ncn2c1CN(C(=O)Nc1ccc(F)c(C#N)c1)[C@@H](C)C2)C(F)(F)F | – | Activity (HepG2 2.2.15): inactive |
| C[C@@H]1Cn2cnc(C(=O)N[C@H](C)C(F)(F)F)c2CN1C(=O)Nc1ccc(F)c(F)c1 | > 100 µM | – |
| CC1CN(C(=O)Nc2ccc(F)c(C#N)c2)Cc2c(C(=O)N[C@H](C)C(F)(F)F)ncn21 (single isomer, unassigned) | > 100 µM | – |
| C[C@H]1Cn2cnc(C(=O)N[C@H](C)C(F)(F)F)c2CN1C(=O)Nc1ccc(F)c(F)c1 | 60.9 µM | – |
| C[C@H]1Cn2ncc(C(=O)N[C@H](C)C(F)(F)F)c2CN1C(=O)Nc1ccc(F)c(F)c1 | > 100 µM | – |
